Like-named read-outs stand apart in the source and are kept apart here.
Key:
[1] = in vivo; cited from earlier work
[2] = test system: Respiratory Syncytial Virus A; experiment: microbe, parasite or virus in culture; type: cell-based; settings: human respiratory syncytial virus, MA104; read-out: CPE Inhibition test EC50
[3] = test system: human lung carcinoma (A549) cells; experiment: cells; type: cell-based; settings: read-out: CPE Inhibition test IC50
[4] = test system: Rhinovirus Type 5; experiment: microbe, parasite or virus in culture; type: cell-based; settings: Enterovirus; read-out: CPE Inhibition test EC50
[5] = test system: African green monkey kidney (MA-104) cells; experiment: cells; type: cell-based; settings: Chlorocebus sabaeus, MA104, cytotoxic concentration, positive control drug = ribavirin, read-out: CPE Inhibition test IC50
[6] = test system: Respiratory Syncytial Virus A; experiment: microbe, parasite or virus in culture; type: cell-based; settings: human respiratory syncytial virus, MA104; read-out: Neutral Red Uptake test EC50
[7] = test system: Rhinovirus Type 5; experiment: Neutral red uptake test; type: cell-based; settings: Enterovirus, read-out: Neutral Red Uptake test EC50
Source text: Environment. Microbiol, 31:35-38, 1976).

[8] = test system: African green monkey kidney (CV-1) cells; experiment: cells; type: cell-based; settings: Chlorocebus sabaeus, read-out: Neutral Red Uptake test IC50
[9] = test system: Parainfluenza Type 3 Virus; experiment: organism not typed; type: cell-based; settings: MA104; read-out: CPE Inhibition test EC50
[10] = test system: Measles Virus; experiment: microbe, parasite or virus in culture; type: cell-based; settings: Measles morbillivirus, CV-1; read-out: CPE Inhibition test EC50
[11] = test system: Parainfluenza Type 3 Virus; experiment: organism not typed; type: cell-based; settings: MA104; read-out: Neutral Red Uptake test EC50
[12] = test system: Madin Darby canine kidney (MDCK) cells; experiment: cells; type: cell-based; settings: Canis lupus familiaris, cytotoxic concentration, positive control drug = ribavirin, read-out: Neutral Red Uptake test IC50
[13] = test system: African green monkey kidney (CV-1) cells; experiment: cells; type: cell-based; settings: Chlorocebus sabaeus, read-out: CPE Inhibition test IC50
[14] = test system: uninfected cells; experiment: Cytotoxicity, microscopic reading of uninfected cells in the CPE inhibition test (rhinovirus host cells, not named); type: cell-based
Protocol: (§1) Cytotoxicity of each test compound is also evaluated as follows. In the initial CPE inhibition tests, two wells of uninfected cells treated with each concentration of test compound are run in parallel with the infected, treated wells. When the CPE is determined microscopically, the toxicity control cells are also examined microscopically for any changes in cell appearance compared to normal uninfected, untreated control cells. Changes, which may manifest as enlargement, granularity, ragged edges, filmy appearance, rounding, detachment from the surface of the well, or other changes, are given a designation of T (100% toxic), PVH (partially toxic-very heavy-80%), PH (partially toxic-heavy-60%), P (partially toxic-40%), PS (partially toxic-slight-20%) or 0 (no toxicity-0%) in accordance with the degree of cytotoxicity observed. […] A neutral red IC50 is also determined based on uptake of neutral red dye by the toxicity control cells.

[15] = test system: Measles Virus; experiment: microbe, parasite or virus in culture; type: cell-based; settings: Measles morbillivirus, CV-1; read-out: Neutral Red Uptake test EC50
[16] = test system: African green monkey kidney (MA-104) cells; experiment: Cytotoxicity, neutral red uptake by toxicity control cells; type: cell-based; settings: Chlorocebus sabaeus, read-out: Neutral Red Uptake test IC50
[17] = test system: uninfected cells; experiment: Cytotoxicity, neutral red uptake by toxicity control cells (rhinovirus host cells, not named); type: cell-based; settings: read-out: Neutral Red Uptake test IC50
Protocol: as §1

[18] = test system: Adenovirus Type 1; experiment: microbe, parasite or virus in culture; type: cell-based; settings: Human mastadenovirus C, A549; read-out: Neutral Red Uptake test EC50
[19] = test system: Adenovirus Type 1; experiment: microbe, parasite or virus in culture; type: cell-based; settings: Human mastadenovirus C, A549; read-out: CPE Inhibition test EC50
[20] = test system: Madin Darby canine kidney (MDCK) cells; experiment: cells; type: cell-based; settings: Canis lupus familiaris, cytotoxic concentration, positive control drug = ribavirin, read-out: CPE Inhibition test IC50
[21] = test system: CMV strain VHL/E or strain BUR/E; type: cell-based; settings: HUVEC, A771726 200 µM, CsA 100 ng/ml, FK 506 1 ng/ml
[22] = test system: CMV DNA; type: cell-based; settings: CMV-infected HFF (100 µM A771726) , identical in HUVEC (200 µM); 1 mM PFA; 48 hours
[23] = test system: CMV strain VHL/E; experiment: Immunohistochemical staining of CMV proteins in infected HUVEC; type: cell-based
Protocol: Experiments were conducted to determine at which point in the viral replication cycle leflunomide exerts its inhibitory effects. Immediately upon penetration of the host cell, CMV lower matrix protein pp65, a component of the viral tegument, translocates to the cell nucleus. Although the nuclear function of pp65 remains to be resolved, another tegument protein (pp71) that migrates in a similar manner acts in concert with cellular proteins to promote rapid transcription of immediate early (IE) viral genes. IE gene products are primarily regulatory, activating early gene transcription, whose products are essential for viral DNA replication. Activation of late genes, which code primarily for structural protein components of the virion, occurs late in the replicative cycle and is dependent upon viral DNA replication.
To localize potential A771726-induced lesions in this temporal series of events, a cross section of CMV proteins in infected cells was first visualized by immunohistochemical staining as follows. CMV strain VHL/E-inoculated HUVEC monolayers incubated in the presence or absence of 200 µM A771726 or 1 mM phosphonoformate (PFA) (as a positive control for late antigen inhibition) were fixed at various intervals and stained with mAb specific for pp65, 72 kD IE1, or late structural glycoprotein B (gB). […]

[24] = target: T1, CMV DNA polymerase (Human cytomegalovirus, UniProt P08546); type: biochemical; settings: extracts of VHL/E-infected HUVEC or P8-infected HFF; PFA result at 1 mM
T1 construct: Crude protein extracts prepared from CMV-infected HUVEC or HFF; endogenous in cells; host or cells: HUVEC infected with CMV VHL/E or BUR/E, and HFF infected with CMV P8; Cells were sonicated and the clarified crude lysate was used
T1 sequence (P16790 whole entry): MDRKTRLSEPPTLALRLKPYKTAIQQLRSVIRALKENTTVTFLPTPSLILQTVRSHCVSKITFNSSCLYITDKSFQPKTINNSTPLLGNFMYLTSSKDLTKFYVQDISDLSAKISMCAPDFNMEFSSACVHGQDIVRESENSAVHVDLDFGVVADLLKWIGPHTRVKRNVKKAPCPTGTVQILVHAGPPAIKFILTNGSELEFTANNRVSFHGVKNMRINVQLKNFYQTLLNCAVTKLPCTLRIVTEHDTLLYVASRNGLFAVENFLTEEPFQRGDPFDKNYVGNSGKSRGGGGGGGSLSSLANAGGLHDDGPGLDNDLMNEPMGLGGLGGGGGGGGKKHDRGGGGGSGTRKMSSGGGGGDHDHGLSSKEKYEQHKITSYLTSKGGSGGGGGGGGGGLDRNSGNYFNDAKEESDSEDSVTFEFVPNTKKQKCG
T1 sequence (P08546 whole entry): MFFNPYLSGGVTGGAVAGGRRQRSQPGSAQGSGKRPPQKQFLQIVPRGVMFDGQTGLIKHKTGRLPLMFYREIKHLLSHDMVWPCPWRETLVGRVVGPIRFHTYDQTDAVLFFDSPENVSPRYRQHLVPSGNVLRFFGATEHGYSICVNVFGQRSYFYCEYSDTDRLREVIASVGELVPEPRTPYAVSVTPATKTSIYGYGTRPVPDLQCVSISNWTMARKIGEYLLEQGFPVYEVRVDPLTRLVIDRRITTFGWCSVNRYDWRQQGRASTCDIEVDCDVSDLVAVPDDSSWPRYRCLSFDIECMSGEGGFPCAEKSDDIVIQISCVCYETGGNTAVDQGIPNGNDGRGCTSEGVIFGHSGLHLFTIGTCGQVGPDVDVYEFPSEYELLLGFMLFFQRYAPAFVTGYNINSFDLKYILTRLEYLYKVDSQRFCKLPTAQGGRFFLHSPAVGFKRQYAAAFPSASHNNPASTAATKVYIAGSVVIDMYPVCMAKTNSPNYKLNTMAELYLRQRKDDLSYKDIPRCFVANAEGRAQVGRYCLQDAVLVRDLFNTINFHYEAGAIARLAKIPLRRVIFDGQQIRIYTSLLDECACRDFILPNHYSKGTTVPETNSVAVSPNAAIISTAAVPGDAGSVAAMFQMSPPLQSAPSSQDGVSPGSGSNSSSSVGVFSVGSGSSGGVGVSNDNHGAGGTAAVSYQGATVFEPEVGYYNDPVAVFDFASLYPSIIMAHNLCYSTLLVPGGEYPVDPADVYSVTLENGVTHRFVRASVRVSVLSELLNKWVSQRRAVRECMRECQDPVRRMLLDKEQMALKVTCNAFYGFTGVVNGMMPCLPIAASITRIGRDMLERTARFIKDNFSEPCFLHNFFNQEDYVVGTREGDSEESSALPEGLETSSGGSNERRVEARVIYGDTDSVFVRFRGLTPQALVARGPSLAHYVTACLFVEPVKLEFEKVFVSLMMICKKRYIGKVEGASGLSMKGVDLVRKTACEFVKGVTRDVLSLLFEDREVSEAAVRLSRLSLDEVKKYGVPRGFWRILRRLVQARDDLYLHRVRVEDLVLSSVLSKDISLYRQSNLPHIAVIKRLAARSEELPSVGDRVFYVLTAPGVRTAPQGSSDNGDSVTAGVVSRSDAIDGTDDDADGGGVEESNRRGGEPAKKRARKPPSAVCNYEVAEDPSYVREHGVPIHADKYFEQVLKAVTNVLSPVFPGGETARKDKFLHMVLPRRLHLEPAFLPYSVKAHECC

[25] = test system: rat CMV (RCMV RA67, Maastricht strain); experiment: Viral load in nude rats inoculated with rat CMV, plaque assay of tissue homogenates; type: in vivo, immunodeficient nude rats; settings: leflunomide 15 mg/kg/day for 14 days, 14 days post-inoculation
[26] = test system: hepatitis C; experiment: Clinical treatment of a patient with chronic hepatitis C, viral load by quantitative PCR; type: in vivo, human
Protocol: The patient is a person who received a liver transplant in January 1990 for hepatitis C. Over the following nine years they developed indolent hepatitis C with mildly elevated liver enzymes. Because of slowly progressive kidney impairment, presumably related to a combination of chronic hepatitis C and long term cyclosporine A treatment, they were started on leflunomide treatment. […] After an initial leflunomide loading dose of 300 mg daily for two days, a maintenance dose of 50 mg daily was started.
As the new treatment regimen was implemented, their kidney function improved; their serum creatinine fell from 3.6 mg/dl to 2.2 mg/dl and their BUN fell from 94 mg/dl to 55 mg/dl. Just before leflunomide was begun their hepatitis C viral load in peripheral blood was 3,120,000 copies, measured by quantitative PCR (Quest Diagnostics). After six weeks of therapy with leflunomide, their hepatitis C viral load had fallen to 1,480,000 copies, measured by the same PCR methodology.

[27] = run with Respiratory Syncytial Virus A
[28] = MA104, cytotoxic concentration, run with Parainfluenza Type 3 Virus, positive control drug = ribavirin

Compound: Nc1ccn(C[C@@H](CO)OCP(=O)(O)O)c(=O)n1 [Cidofovir]
- Neutropenia, share of recipients [1]: approximately 10%

Compound: Cc1nocc1C(=O)Nc1ccc(C(F)(F)F)cc1 [Compound 99-126, N-(4-trifluoromethylphenyl)-3-methylisoxazol-4-carboxamide]
- EC50 [2]: > 100 µM
- IC50 [3]: 60 µM
- EC50 [4]: 100 µM
- IC50 ([5]; run with Parainfluenza Type 3 Virus): 11 µM
- IC50 [5, 27]: 40 µM
- EC50 [6]: > 100 µM
- EC50 [7]: > 100 µM
- IC50 [8]: 25 µM
- EC50 [9]: > 100 µM
- EC50 [10]: 10 µM
- EC50 [11]: 20 µM
- IC50 ([12]; run with Influenza A (H1N1)): 48 µM
- IC50 ([12]; run with Influenza A (H3N2)): 30 µM
- IC50 ([12]; run with Influenza B): 46 µM
- IC50 [13]: 60 µM
- IC50 [14]: 100 µM
- EC50 [15]: 14 µM
- IC50 [16, 28]: 20 µM
- IC50 ([16]; MA104): 30 µM
- IC50 [17]: > 100 µM
- EC50 [18]: > 100 µM
- EC50 [19]: > 100 µM
- IC50 ([20]; run with Influenza A (H1N1)): 63 µM
- IC50 ([20]; run with Influenza A (H3N2)): 72 µM
- IC50 ([20]; run with Influenza B): 72 µM

Compound: Cc1oncc1C(=O)Nc1cccc(C(F)(F)F)c1 [Compound 99-127, N-(3-trifluoromethylphenyl)-5-methylisoxazol-4-carboxamide]
- EC50 [2]: > 100 µM
- IC50 [5, 27]: 30 µM
- EC50 [6]: > 100 µM
- IC50 [8]: 30 µM
- EC50 [9]: > 100 µM
- EC50 [10]: > 100 µM
- EC50 [11]: > 100 µM
- IC50 ([12]; run with Influenza A (H1N1)): 66 µM
- IC50 ([12]; run with Influenza A (H3N2)): 46 µM
- IC50 ([12]; run with Influenza B): 60 µM
- IC50 [13]: 60 µM
- EC50 [15]: > 100 µM
- IC50 [16, 28]: 15 µM
- IC50 ([16]; MA104): 20 µM
- IC50 ([20]; run with Influenza A (H1N1)): > 200 µM
- IC50 ([20]; run with Influenza A (H3N2)): 63 µM
- IC50 ([20]; run with Influenza B): > 200 µM

Compound: C=CC[C@@H]1/C=C(\C)C[C@H](C)C[C@H](OC)[C@H]2O[C@@](O)(C(=O)C(=O)N3CCCC[C@H]3C(=O)O[C@H](/C(C)=C/[C@@H]3CC[C@@H](O)[C@H](OC)C3)[C@H](C)[C@@H](O)CC1=O)[C@H](C)C[C@@H]2OC [FK 506, tacrolimus]
- production of infectious virus (CMV production) [21]: no significant inhibition

Compound: O=C([O-])P(=O)(O)O.[Na+] [PFA, sodium phosphonoformate]
- quantities of viral DNA synthesized [22]: no detectable CMV DNA
- expression of viral proteins pp65, IE1, gB ([23]; 200 µM A771726 or 1 mM PFA, 24, 48, 96 hours pi): unable to express gB
- pp65 and IE1 expression ([23]; 1 mM PFA): unimpeded
- toxicities (renal dysfunction, hypomagnesemia, hypokalemia, hypocalcemia, seizures, fever, rash), each, share of recipients [1]: more than 5%
- viral DNA polymerase activity [24]: complete inhibition

Compound: Cc1oncc1C(=O)Nc1ccc(C(F)(F)F)cc1 [leflunomide, N-(4-trifluoromethylphenyl)-5-methylisoxazol-4-carboxamide]
- viral load in salivary gland, lung and spleen [25]: significantly reduced viral load
- hepatitis C viral load in peripheral blood ([26]; after six weeks of leflunomide (300 mg daily two days, then 50 mg daily), 3,120,000 copies before): 1,480,000 copies
- drop in hepatitis C viral load ([26]; one patient, six weeks of leflunomide therapy): 50%

Reference: patent EP1169036B1, “ANTI-VIRAL USES OF LEFLUNOMIDE PRODUCTS” (priority 1998, dated 1999)
